The record followed here is ChEMBL document CHEMBL3886918, “Pyrimidine compounds useful in the treatment of diseases mediated by IKKE and/or TBK1 mechanisms” (2016).

SMILES strings stand for the structures.

The test has as its target T1, Serine/threonine-protein kinase TBK1 (Homo sapiens, UniProt Q9UHD2).
T1 sequence (Q9UHD2 whole entry): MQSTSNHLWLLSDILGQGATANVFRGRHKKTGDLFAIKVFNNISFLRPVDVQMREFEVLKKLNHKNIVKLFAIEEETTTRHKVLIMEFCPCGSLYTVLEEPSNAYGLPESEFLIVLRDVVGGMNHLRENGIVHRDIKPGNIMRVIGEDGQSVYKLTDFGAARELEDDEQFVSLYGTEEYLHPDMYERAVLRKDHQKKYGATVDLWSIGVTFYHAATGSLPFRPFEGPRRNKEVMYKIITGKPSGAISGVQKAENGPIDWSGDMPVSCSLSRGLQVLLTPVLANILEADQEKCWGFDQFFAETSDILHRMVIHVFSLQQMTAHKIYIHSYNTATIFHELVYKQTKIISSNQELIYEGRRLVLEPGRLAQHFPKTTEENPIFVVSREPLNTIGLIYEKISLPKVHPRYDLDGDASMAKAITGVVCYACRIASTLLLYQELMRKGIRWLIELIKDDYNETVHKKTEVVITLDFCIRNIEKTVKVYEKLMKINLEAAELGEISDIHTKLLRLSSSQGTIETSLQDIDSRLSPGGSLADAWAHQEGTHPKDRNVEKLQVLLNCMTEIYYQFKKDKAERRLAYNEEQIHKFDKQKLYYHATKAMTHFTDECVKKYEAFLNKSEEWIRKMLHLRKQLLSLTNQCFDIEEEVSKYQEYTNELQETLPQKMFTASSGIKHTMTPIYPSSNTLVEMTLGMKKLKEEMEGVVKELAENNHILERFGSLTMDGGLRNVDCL
Briefly: Time-Resolved Fluorescence-based Lanthascreen Assay: Kinase inhibition assays (10 μL) were performed at 20° C. in 384-well plate format. Compound IC50 values were determined at the apparent Km for ATP (20 μM) based on a radiometric assay (Invitrogen) using 8 or 10 point curves in duplicate. The final reaction conditions contained 400 nM fluorescein-IkBα substrate ([…]), 20 μM ATP, 2 nM or 8 nM IKKε or TBK1 kinase respectively, and 3% DMSO in kinase assay buffer consisting of 50 mM HEPES (pH 7.5), 10 mM MgCl, 1 mM EGTA, 0.01% Brij-35.Compound dilutions were prepared from 10 mM DMSO stocks by dilution into DMSO. Compound dilution series were further diluted in kinase assay buffer to give a 12% DMSO stock, the final concentration in the assay being 3% DMSO.The kinase phosphorylation assay was initiated by the addition of the kinase and the reaction was allowed to proceed for 1 h or 2.5 h for IKKε and TBK-1 kinase respectively. Background: TR-FRET usually uses a lanthanide donor and a delayed reading to cut background.
For the compound `CC(=O)NC1CCN(c2ncc(-c3ccnc(Nc4ccc(CN5CCOCC5)nc4)n3)cc2C#N)C1` (stereo not given), the 50% inhibitory concentration (IC50) is below 1000 nM.

In the case of `N#Cc1cc(-c2ccnc(Nc3ccc(CN4C(=O)OCC4CO)nc3)n2)cnc1N1CC[C@H](F)C1` (stereo not given in full), the IC50 is below 30 nM.

For the compound `N#Cc1cc(-c2ccnc(Nc3cccc(C(=O)N4CCNCC4)c3)n2)cnc1N1CC[C@H](F)C1`, the IC50 was below 30 nM.

Turning to `N#Cc1cc(-c2nc(Nc3ccnc(NC(=O)CN4CCOCC4)c3)ncc2F)cnc1N1CC[C@H](F)C1`, the IC50 was below 30 nM.

As to `N#Cc1cc(-c2ccnc(Nc3ccc(N)nc3)n2)cnc1N1CC[C@H](F)C1`, the half-maximal inhibitory concentration (IC50) is below 30 nM.

The term IC50 denotes the concentration that gives 50% inhibition.
